The target in assay [1] is T1, IKBKB (IKKβ) (Homo sapiens, UniProt O14920).
T1 construct: purchased Invitrogen (Paisley, UK)
T1 sequence (O14920 1-756): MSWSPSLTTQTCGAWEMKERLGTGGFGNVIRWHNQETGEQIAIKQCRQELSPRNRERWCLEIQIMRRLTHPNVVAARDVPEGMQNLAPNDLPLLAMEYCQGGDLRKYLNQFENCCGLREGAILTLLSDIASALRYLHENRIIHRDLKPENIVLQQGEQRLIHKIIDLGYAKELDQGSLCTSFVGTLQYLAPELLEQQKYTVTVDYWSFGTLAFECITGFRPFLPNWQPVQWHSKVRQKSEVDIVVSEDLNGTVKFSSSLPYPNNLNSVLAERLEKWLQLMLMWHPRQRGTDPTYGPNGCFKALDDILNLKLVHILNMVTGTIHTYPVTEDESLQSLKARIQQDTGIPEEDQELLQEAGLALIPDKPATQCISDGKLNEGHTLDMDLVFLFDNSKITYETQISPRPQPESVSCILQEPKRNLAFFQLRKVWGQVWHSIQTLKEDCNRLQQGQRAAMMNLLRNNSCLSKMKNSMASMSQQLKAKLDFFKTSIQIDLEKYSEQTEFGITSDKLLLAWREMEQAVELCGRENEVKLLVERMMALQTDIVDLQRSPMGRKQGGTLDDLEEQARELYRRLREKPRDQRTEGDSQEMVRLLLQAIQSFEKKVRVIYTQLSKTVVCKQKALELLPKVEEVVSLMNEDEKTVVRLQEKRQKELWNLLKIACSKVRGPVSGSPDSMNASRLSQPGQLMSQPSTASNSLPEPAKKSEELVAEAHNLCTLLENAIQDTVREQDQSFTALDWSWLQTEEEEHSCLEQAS
The assay can be described thus: IKKβ Enzyme Assay (Z'-LYTE, Invitrogen). It counts as biochemical. To be noted: ATP at or close to Km; read-out: Inhibitor activity versus IKKβ. The essentials:
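Z'-LYTE FRET assay with 0.9-8.0 ng human IKBKB, 2 μM Ser/Thr 05 peptide and ATP at or near Km in HEPES pH 7.5, 60 min at room temperature, then 60 min development. Coumarin/fluorescein emission ratio read; duplicate nine-step ⅓-log series from 10 μM; IC50 from sigmoidal fit.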

In assay [2] the test system is THP-1 cells. The assay can be described thus: LPS-Stimulation of THP-1 Cells, TNF-α release. It counts as cell-based. As to conditions: Homo sapiens, LPS 1 μg/ml, 6 hrs, read-out: Inhibitor activity versus THP-1 TNFα release. As for the experimental part:
LPS-Stimulation of THP-1 Cells
THP-1 cells were plated in 100 μl at a density of 4×10^4 cells/well in V-bottomed 96 well tissue culture treated plates and incubated at 37° C. in 5% CO2 for 16 hrs. 2 hrs after the addition of the inhibitor in 100 μl of tissue culture media, the cells were stimulated with LPS (E. coli strain 005:85, Sigma) at a final concentration of 1 μg/ml and incubated at 37° C. in 5% CO2 for 6 hrs. TNF-α levels were measured from cell-free supernatants by sandwich ELISA (R&D Systems #QTA00B)

The test system of assay [3] is human whole blood. The assay can be described thus: LPS-Stimulation of Human Whole Blood, TNF-α release. It counts as cell-based. As to conditions: LPS 100 ng/ml, 6 hrs, read-out: Inhibitor activity versus human whole blood TNFα release. As for the experimental part:
LPS-Stimulation of Human Whole Blood
Whole blood was taken by venous puncture using heparinised vacutainers (Becton Dickinson) and diluted in an equal volume of RPMI1640 tissue culture media (Sigma). 100 μl was plated in V-bottomed 96 well tissue culture treated plates. 2 hrs after the addition of the inhibitor in 100 μl of RPMI1640 media, the blood was stimulated with LPS (E. coli strain 005:B5, Sigma) at a final concentration of 100 ng/ml and incubated at 37° C. in 5% CO2 for 6 hrs. TNF-α levels were measured from cell-free supernatants by sandwich ELISA (R&D Systems #QTA00B)

The structures appear in SMILES notation.

On to `NC(=O)Nc1sc(-c2ccc(CN[C@@H](C(=O)OC3CCCC3)c3ccccc3)cc2)cc1C(N)=O` [Example 4, Cyclopentyl (2R)-({4-[4-carbamoyl-5-(carbamoylamino)-2-thienyl]benzyl}amino)(phenyl)acetate], for which the IC50 in assay [1] is under 1000 nM; in assay [2] it was over 5000 nM; in assay [3], 1000 to 5000 nM.

Regarding `CC(C)C[C@H](NCc1cccc(-c2cc(C(N)=O)c(NC(N)=O)s2)c1)C(=O)OC1CCCC1` [Example 8, Cyclopentyl N-{3-[4-carbamoyl-5-(carbamoylamino)-2-thienyl]benzyl}-L-leucinate], the IC50 was under 1000 nM in assay [1], under 1000 nM in assay [2] and 1000 to 5000 nM in assay [3].

For `NC(=O)Nc1sc(-c2cccc(CN[C@H](C(=O)OC3CCCC3)c3ccccc3)c2)cc1C(N)=O` [Example 9, Cyclopentyl (2S)-({3-[4-carbamoyl-5-(carbamoylamino)-2-thienyl]benzyl}amino)(phenyl)acetate], the values for the IC50 in assay [1], in assay [2] and in assay [3] were under 1000 nM, under 1000 nM and 1000 to 5000 nM, respectively.

As to `NC(=O)Nc1sc(-c2cccc(CN[C@H](C(=O)OC3CCCC3)C3CCCCC3)c2)cc1C(N)=O` [Example 10, Cyclopentyl (2S)-({3-[4-carbamoyl-5-(carbamoylamino)-2-thienyl]benzyl}amino)(cyclohexyl)acetate], the IC50 in assay [1] was 1000 to 5000 nM; in assay [2], under 1000 nM; in assay [3], 1000 to 5000 nM.

Take `CC(C)(C)OC[C@H](NCc1cccc(-c2cc(C(N)=O)c(NC(N)=O)s2)c1)C(=O)OC1CCCC1` [Example 11, Cyclopentyl O-tert-butyl-N-{3-[4-carbamoyl-5-(carbamoylamino)thiophen-2-yl]benzyl}-L-serinate]: the IC50 in assay [1] is under 1000 nM; in assay [2], 1000 to 5000 nM; in assay [3], 1000 to 5000 nM.

For the compound `C[C@@H](O)[C@H](NCc1cccc(-c2cc(C(N)=O)c(NC(N)=O)s2)c1)C(=O)OC1CCCC1` [Example 13, Cyclopentyl N-{3-[4-carbamoyl-5-(carbamoylamino)thiophen-2-yl]benzyl}-L-threoninate], the IC50 in assay [1], in assay [2] and in assay [3] was under 1000 nM throughout.

Regarding `CC(C)C[C@H](NCc1cccc(-c2cc(C(N)=O)c(NC(N)=O)s2)c1)C(=O)OC(C)(C)C` [Example 14, tert-Butyl N-{3-[4-carbamoyl-5-(carbamoylamino)-2-thienyl]benzyl}-L-leucinate], the IC50 is under 1000 nM in assay [1], under 1000 nM in assay [2] and 1000 to 5000 nM in assay [3].

In the case of `CC(C)C[C@H](NCCc1cccc(-c2cc(C(N)=O)c(NC(N)=O)s2)c1)C(=O)OC1CCCC1` [Example 18, Cyclopentyl N-(2-{3-[4-carbamoyl-5-(carbamoylamino)-2-thienyl]phenyl}ethyl)-L-leucinate], the figures for the IC50 in assay [1], in assay [2] and in assay [3] were 1000 to 5000 nM, under 1000 nM and 1000 to 5000 nM, respectively.

Take `NC(=O)Nc1sc(-c2cccc(CCN[C@H](C(=O)OC3CCCC3)c3ccccc3)c2)cc1C(N)=O` [Example 19, Cyclopentyl (2S)-[(2-{3-[4-carbamoyl-5-(carbamoylamino)-2-thienyl]phenyl}ethyl)amino](phenyl)acetate]: the IC50 in assay [1], in assay [2] and in assay [3] was under 1000 nM each time.

With `CC(C)C[C@H](NCCc1cc(-c2cc(C(N)=O)c(NC(N)=O)s2)ccc1F)C(=O)OC1CCCC1` [Example 22, Cyclopentyl N-(2-{5-[4-carbamoyl-5-(carbamoylamino)thiophen-2-yl]-2-fluorophenyl}ethyl)-L-leucinate], the IC50 in assay [1], in assay [2] and in assay [3] was 1000 to 5000 nM in each case.

As to `CC(C)C[C@H](NC/C=C/c1ccc(-c2cc(C(N)=O)c(NC(N)=O)s2)cc1)C(=O)OC1CCCC1` [Example 29, Cyclopentyl N-[(2E)-3-{4-[4-carbamoyl-5-(carbamoylamino)-2-thienyl]phenyl}Prop-2-en-1-yl]-L-leucinate], the IC50 in assay [1], in assay [2] and in assay [3] was under 1000 nM in each case.

Take `CC(C)C[C@H](NC/C=C/c1ccc(-c2cc(C(N)=O)c(NC(N)=O)s2)cc1F)C(=O)OC1CCCC1` [Example 31, Cyclopentyl N-[(2E)-3-{4-[4-carbamoyl-5-(carbamoylamino)thiophen-2-yl]-2-fluorophenyl}prop-2-en-1-yl]-L-leucinate]: the IC50 in assay [1], in assay [2] and in assay [3] was 1000 to 5000 nM throughout.

With `CC(C)C[C@H](NC/C=C/c1ccc(-c2cc(C(N)=O)c(NC(N)=O)s2)cc1Cl)C(=O)OC1CCCC1` [Example 32, Cyclopentyl N-[(2E)-3-{4-[4-carbamoyl-5-(carbamoylamino)thiophen-2-yl]-2-chlorophenyl}prop-2-en-1-yl]-L-leucinate], the IC50 in assay [1] was 1000 to 5000 nM; in assay [2] it was under 1000 nM; in assay [3], 1000 to 5000 nM.

In the case of `Cc1cc(/C=C/CN[C@@H](CC(C)C)C(=O)OC2CCCC2)ccc1-c1cc(C(N)=O)c(NC(N)=O)s1` [Example 33, Cyclopentyl N-[(2E)-3-{4-[4-carbamoyl-5-(carbamoylamino)thiophen-2-yl]-3-methylphenyl}prop-2-en-1-yl]-L-leucinate], the results for the IC50 in assay [1], in assay [2] and in assay [3] were over 5000 nM, under 1000 nM and 1000 to 5000 nM, respectively.

Take `NC(=O)Nc1sc(-c2ccc(/C=C/CN[C@H](C(=O)OC3CCCC3)c3ccccc3)cc2)cc1C(N)=O` [Example 41, Cyclopentyl (2S)-{[(2E)-3-{4-[4-carbamoyl-5-(carbamoylamino)-2-thienyl]phenyl}prop-2-en-1-yl]amino}(phenyl)acetate]: the IC50 is under 1000 nM in assay [1], 1000 to 5000 nM in assay [2] and 1000 to 5000 nM in assay [3].

Regarding `CC(C)C[C@H](NC/C=C/c1ccc(-c2cc(C(N)=O)c(NC(N)=O)s2)cc1)C(=O)OC(C)(C)C` [Example 42, tert-Butyl N-[(2E)-3-{4-[4-carbamoyl-5-(carbamoylamino)-2-thienyl]phenyl}-prop-2-en-1-yl]-L-leucinate], the IC50 in assay [1] is under 1000 nM; in assay [2], 1000 to 5000 nM; in assay [3] it was over 5000 nM.

Consider `CC(C)C[C@H](NC/C=C/c1cccc(-c2cc(C(N)=O)c(NC(N)=O)s2)c1)C(=O)OC1CCCC1` [Example 49, Cyclopentyl N-[(2E)-3-{3-[4-carbamoyl-5-(carbamoylamino)-2-thienyl]phenyl}prop-2-en-1-yl]-L-leucinate], for which the IC50 in assay [1], in assay [2] and in assay [3] was under 1000 nM in each case.
